In patent US10722441B2, “Noreugenin glycoside derivatives” (Universitaet Hamburg, priority 2016, dated 2020):

Test system: reconstituted human epidermis with melanocytes of phototype II
Assay: Tanning properties in reconstituted human epidermis with melanocytes; semiquantification of melanin content by Fontana-Masson staining and image analysis
Type: cell-based
Conditions: for Change of melanin content / pigmentation, in words: IBMX 100 μM vs untreated controls
Procedure: The epidermis with melanocytes of phototype II is reconstituted in an air/liquid interface system (directly at the air-liquid interface) in a culture medium from day 0 to day 4 for a complete differentiation. The culture is then continued from day 4 to day 14 in this same medium but without bovine pituitary extract (BPE). The test preparations were administered in the […] from day 4 to day 14. The medium and the test preparations are each added on day 4, day 7 and day 11. DMSO and THF are tested in parallel and IBMX (100 μM) is used as the positive reference.
After embedding in paraffin, a Fontana-Masson staining of the tissue sections is performed. The microscope slides are covered with a special medium and examined using a light microscope of the Leica DM2000 type with a digital camera. After staining, images are recorded and a quantification is performed by image analysis (on the basis of 12 images). For quantification of the melanin content in each image, the Leica QWin3 software is used. Two measurements are carried out. The first measurement gives the total intensity of the coloration, i.e., a lighter or darker melanin is reflected. The second measurement relates to the marked image area, i.e., the area of the epidermis containing the melanin. In these measurements all cell layers except the stratum corneum are included.
The procedure used was the same as that carried out in example 1 and 2. After determining the cytotoxic concentrations, substance (Ia) is tested at 8 μM, substance (Ib) at 40 μM (solvent: 0.1% THF) and substance (IIa) at 20 μM (solvent: 0.1% DMSO).
After determining the cytotoxic concentrations of these substances, substance (Ib) is tested at 40 μM in DMSO (0.1%), substance (IIa) is tested at 20 μM in DMSO (0.1%), the mixture of (Ib)/(IIa) is tested at 40/20 μM in DMSO (0.1% and rhamnose is tested at 40 μM in THF (0.2%).

[1] = second experiment, Ib 40 μM and IIa 20 μM vs DMSO, mixture 40/20 μM, rhamnose 40 μM
[2] = first experiment, Ia 8 μM, Ib 40 μM vs THF, IIa 20 μM vs DMSO

SMILES	Change of melanin content / pigmentation, in words [1]	Change of melanin content / pigmentation, in words [2]	other results
C[C@H](O)[C@H](O)[C@@H](O)[C@@H](O)C=O [Rhamnose, rhamnose, reference compound]	tendency to increase melanin synthesis is only faintly pronounced	–	Quantification after Fontana-Masson staining, relative to the untreated controls (second experiment, 40 μM in THF (0.2%)): 109%
Cc1cc(=O)c2c(O)cc(O[C@@H]3O[C@H](CO)[C@@H](O)[C@H](O)[C@H]3O)cc2o1 [Substance (Ia), 7-(β-D-glucopyranosyloxy)-5-hydroxy-2-methyl-4H-1-benzopyran-4-one]	–	unambiguous tendency to increase pigmentation	Quantification after Fontana-Masson staining, relative to the untreated controls (first experiment, 8 μM, day 4 to day 14): 125%
Cc1cc(=O)c2c(O)cc(O[C@@H]3O[C@@H](C)[C@H](O)[C@@H](O)[C@H]3O)cc2o1 [Substance (Ib), 7-[(6-deoxy-α-L-mannopyranosyl)oxy]-5-hydroxy-2-methyl-4H-1-benzopyran-4-one]	significant increase	significant increase	Quantification after Fontana-Masson staining, relative to the untreated controls (first experiment, 40 μM, solvent 0.1% THF, day 4 to day 14): 174% (p < 0.05); Quantification after Fontana-Masson staining, relative to the untreated controls (second experiment, 40 μM in DMSO (0.1%)): 167% (p < 0.01)
CC(C)Cn1c(=O)n(C)c(=O)c2[nH]cnc21 [IBMX, reference compound]	significant increase	significant increase	Quantification after Fontana-Masson staining, relative to the untreated controls (first experiment, IBMX 100 μM, positive reference, day 4 to day 14): 152% (p < 0.05); Quantification after Fontana-Masson staining, relative to the untreated controls (second experiment, IBMX 100 μM, positive reference): 150% (p < 0.01)
Cc1cc(=O)c2c(O[C@@H]3O[C@@H](C)[C@H](O)[C@@H](O)[C@H]3O)cc(O)cc2o1 [Substance (IIa), 5-[(6-deoxy-α-L-mannopyranosyl)oxy]-7-hydroxy-2-methyl-4H-1-benzopyran-4-one]	significant increase	significant increase	Quantification after Fontana-Masson staining, relative to the untreated controls (first experiment, 20 μM, solvent 0.1% DMSO, day 4 to day 14): 143% (p < 0.05); Quantification after Fontana-Masson staining, relative to the untreated controls (second experiment, 20 μM in DMSO (0.1%)): 147% (p < 0.05)
